Laboratory results as given in patent US20250144067A1, “PERSONALIZED STARVATION THERAPY FOR CANCER” (Faeth Therapeutics, Inc., priority 2021, published 2025).
Structures can show the parent of a compound that is named as a salt. Where two headings read alike, the source gives them in different places.

Key:
[1] = system: NCI-H292 lung cancer cells; test: FDA drug screening, complete media vs cholesterol-free media without statin (TABLE 1); assay type: cell-based, human
[2] = system: NCI-H292 lung cancer cells; test: FDA drug screening, complete media vs cholesterol-free media with simvastatin (TABLE 2); assay type: cell-based, human
[3] = Complete minus Cholesterol-free, […]
[4] = NCI-H292 cells, FDA drug library screen, cholesterol-free media without statin
[5] = NCI-H292 cells, FDA drug library screen, complete media
[6] = complete media minus cholesterol-free media + simvastatin, […]
[7] = Complete minus Cholesterol-free, >0 enhanced anti-cancer activity, about 0 neutral, <0 antagonist
[8] = NCI-H292 cells, cholesterol-free media without statin
[9] = NCI-H292 cells, FDA drug library screen, cholesterol-free media with simvastatin 0.04 μM
[10] = complete media vs cholesterol-free media + simvastatin (0.04 μM), >0 enhanced anti-cancer activity, about 0 neutral, <0 antagonist
[11] = NCI-H292 cells, FDA library drug in cholesterol-free media with simvastatin 0.04 μM
[12] = NCI-H292 cells, FDA library drug in complete media
[13] = Complete minus Cholesterol-free, greater than 0 enhanced anti-cancer activity, about 0 neutral, below 0 antagonists
[14] = NCI-H292 cells in cholesterol-free media without statin
[15] = NCI-H292 cells in complete media
[16] = NCI-H292 cells, cholesterol-free media without statin, FDA drug library screen
[17] = NCI-H292 cells, complete media, FDA drug library screen
[18] = complete vs cholesterol-free media, >0 enhanced anti-cancer activity, about 0 neutral, <0 antagonist
[19] = NCI-H292 cells, cholesterol-free media with simvastatin 0.04 μM, FDA drug library screen (TABLE 2)
[20] = NCI-H292 cells, complete media, FDA drug library screen (TABLE 2)
[21] = complete media minus cholesterol-free media + simvastatin (0.04 μM), >0 enhanced anti-cancer activity, about 0 neutral, <0 antagonist
[22] = Complete minus Cholesterol-free, greater than 0 enhanced anti-cancer activity, about 0 neutral, below 0 antagonist
[23] = complete vs cholesterol-free media, greater than 0 enhanced anti-cancer activity, about 0 neutral, below 0 antagonists
[24] = NCI-H292 cells, cholesterol-free media with simvastatin 0.04 μM, cell growth value in FDA drug screen
[25] = NCI-H292 cells, complete media, cell growth value in FDA drug screen
[26] = complete media minus cholesterol-free media + simvastatin, >0 enhanced anti-cancer activity, about 0 neutral, <0 antagonist
[27] = complete vs cholesterol-free media, […]
[28] = NCI-H292 cells, drug in cholesterol-free media with simvastatin 0.04 μM
[29] = NCI-H292 cells, drug in complete media
[30] = complete media vs cholesterol-free media + simvastatin (0.04 μM), […]

c1ccc2c(c1)Nc1ccccc1S2 [Phenothiazine]
Difference [1, 3]: −0.11 | Cholesterol-free [1, 4]: 1.108 | Complete [1, 5]: 1.002 | Cholesterol-free media + simvastatin (0.04 μM) ([2]; NCI-H292 cells, cholesterol-free media with simvastatin 0.04 μM, […]): 1.18 | Complete Media ([2]; NCI-H292 cells, complete media, […]): 1.261 | Difference [2, 6]: 0.08

Terbutaline (sulfate)
Difference [1, 7]: −0.29 | Cholesterol-free [1, 8]: 1.263 | Complete ([1]; NCI-H292 cells, complete media): 0.9738 | Cholesterol-free media + simvastatin (0.04 μM) [2, 9]: 1.189 | Difference [2, 10]: −0.15

CCCCCCCC(=O)N[C@H](CN1CCCC1)[C@H](O)c1ccc2c(c1)OCCO2 [Eliglustat]
Difference [1, 7]: −0.30 | Cholesterol-free [1, 8]: 1.155 | Complete ([1]; NCI-H292 cells, complete media): 0.8552 | Cholesterol-free media + simvastatin (0.04 μM) [2, 11]: 1.086 | Complete Media [2, 12]: 0.6384 | Difference [2, 10]: −0.45

CN(C(=O)CN(CCO)CC(=O)N(C)C(C)(C)Cc1ccccc1)C(C)(C)Cc1ccccc1 [Oxethazaine]
Difference [1, 13]: −1.45 | Cholesterol-free [1, 14]: 2.442 | Complete [1, 15]: 0.9966 | Cholesterol-free media + simvastatin (0.04 μM) [2, 9]: 1.131 | Complete Media [2, 5]: 0.9874 | Difference [2, 10]: −0.14

O=C(Cn1ccnc1[N+](=O)[O-])NCc1ccccc1 [Benznidazol]
Cholesterol-free [1, 16]: 1.047 | Complete [1, 17]: 1.215 | Difference [1, 18]: 0.17 | Cholesterol-free media + simvastatin (0.04 μM) [2, 11]: 2.104 | Complete Media [2, 12]: 1.636 | Difference [2, 10]: −0.47

Oxolamine (citrate)
Cholesterol-free [1]: 1.162 | Complete [1]: 0.9128 | Difference [1]: −0.25 | Cholesterol-free media + simvastatin (0.04 μM) [2]: 0.8466 | Complete Media [2]: 1.01 | Difference [2]: 0.16

CO[C@H]1C(=O)[C@]2(C)[C@@H](OC)C[C@H]3OC[C@@]3(OC(C)=O)[C@H]2[C@H](OC(=O)c2ccccc2)[C@]2(O)C[C@H](OC(=O)[C@H](O)[C@@H](NC(=O)OC(C)(C)C)c3ccccc3)C(C)=C1C2(C)C [Cabazitaxel]
Difference [1, 7]: −0.01 | Cholesterol-free [1, 16]: 0.2044 | Complete [1, 17]: 0.198 | Cholesterol-free media + simvastatin (0.04 μM) [2, 19]: 0.364 | Complete Media [2, 20]: 0.3065 | Difference [2, 21]: −0.06

CO[C@@]1(NC(=O)Cc2cccs2)C(=O)N2C(C(=O)O)=C(COC(N)=O)CS[C@@H]21 [Cefoxitin]
Difference [1, 22]: −0.13 | Cholesterol-free [1, 4]: 0.8861 | Complete [1, 5]: 0.755 | Cholesterol-free media + simvastatin (0.04 μM) [2, 11]: 1.841 | Complete Media [2, 12]: 1.5 | Difference [2, 10]: −0.34

NCC[C@H](O)C(=O)N[C@@H]1C[C@H](N)[C@@H](O[C@H]2O[C@H](CN)[C@@H](O)[C@H](O)[C@H]2O)[C@H](O)[C@H]1O[C@H]1O[C@H](CO)[C@@H](O)[C@H](N)[C@H]1O [Amikacin (disulfate)]
Difference [1, 3]: −0.09 | Cholesterol-free [1, 4]: 0.9569 | Complete [1, 5]: 0.8685 | Cholesterol-free media + simvastatin (0.04 μM) [2, 9]: 0.8392 | Complete Media [2, 5]: 1.245 | Difference [2, 6]: 0.41

CC(C(=O)O)c1cccc(C(=O)c2ccccc2)c1 (centres unmarked) [Ketoprofen]
Cholesterol-free [1, 8]: 1.284 | Complete ([1]; NCI-H292 cells, complete media): 0.8938 | Difference [1, 23]: −0.39 | Cholesterol-free media + simvastatin (0.04 μM) [2, 24]: 0.9565 | Complete Media [2, 25]: 0.9752 | Difference [2, 26]: 0.02

CC(=O)O[C@H]1C[C@@H]2CC[C@@H]3[C@H](CC[C@@]4(C)[C@H]3C[C@H]([N+]3(C)CCCCC3)[C@@H]4OC(C)=O)[C@@]2(C)C[C@@H]1[N+]1(C)CCCCC1.[Br-].[Br-] [Pancuronium (dibromide)]
Cholesterol-free [1, 8]: 1.193 | Complete ([1]; NCI-H292 cells, complete media): 0.8678 | Difference [1, 27]: −0.33 | Cholesterol-free media + simvastatin (0.04 μM) [2, 28]: 1.121 | Complete Media [2, 29]: 0.885 | Difference [2, 30]: −0.24

Clc1ccc(C(Cn2ccnc2)OCc2ccsc2Cl)c(Cl)c1 (centres unmarked) [Tioconazole]
Difference [1, 7]: −0.27 | Cholesterol-free [1, 8]: 1.207 | Complete ([1]; NCI-H292 cells, complete media): 0.9413 | Cholesterol-free media + simvastatin (0.04 μM) [2, 9]: 0.669 | Complete Media [2, 5]: 0.9672 | Difference [2, 26]: 0.30

C[C@]1(COc2ccc(N3CCC(Oc4ccc(OC(F)(F)F)cc4)CC3)cc2)Cn2cc([N+](=O)[O-])nc2O1 [Delamanid]
Difference [1, 7]: −0.22 | Cholesterol-free [1, 8]: 1.106 | Complete ([1]; NCI-H292 cells, complete media): 0.8827 | Cholesterol-free media + simvastatin (0.04 μM) [2, 19]: 1.352 | Complete Media [2, 20]: 1.345 | Difference [2, 21]: −0.01

Cc1ccc(C(=O)c2ccc(CC(=O)O)n2C)cc1 [Tolmetin (sodium dihydrate)]
Cholesterol-free [1, 16]: 0.7023 | Complete [1, 17]: 1.262 | Difference [1, 18]: 0.56 | Cholesterol-free media + simvastatin (0.04 μM) [2, 11]: 1.295 | Complete Media [2, 12]: 0.94 | Difference [2, 10]: −0.35

CCc1c(C)[nH]c2c1C(=O)C(CN1CCOCC1)CC2 (centres unmarked) [Molindone (hydrochloride)]
Difference [1, 7]: −0.28 | Cholesterol-free [1, 8]: 1.138 | Complete ([1]; NCI-H292 cells, complete media): 0.8619 | Cholesterol-free media + simvastatin (0.04 μM) [2, 9]: 0.9443 | Complete Media [2, 5]: 0.8609 | Difference [2, 10]: −0.08

C[C@H](CSC(=O)c1ccccc1)C(=O)N1C[C@@H](Sc2ccccc2)C[C@H]1C(=O)O [Zofenopril (calcium)]
Difference [1, 3]: −0.03 | Cholesterol-free [1, 16]: 1.281 | Complete [1, 17]: 1.25 | Cholesterol-free media + simvastatin (0.04 μM) [2, 19]: 0.8443 | Complete Media [2, 20]: 0.8399 | Difference ([2]; complete media minus cholesterol-free media + simvastatin (0.04 μM), […]): 0.00

Oc1ccc(OCc2ccccc2)cc1 [Monobenzone]
Difference [1, 13]: −0.87 | Cholesterol-free [1, 14]: 1.95 | Complete [1, 15]: 1.077 | Cholesterol-free media + simvastatin (0.04 μM) [2, 9]: 1.226 | Complete Media [2, 5]: 1.137 | Difference [2, 10]: −0.09

CN(C)C(=O)Oc1cc(OC(=O)N(C)C)cc(C(O)CNC(C)(C)C)c1 (centres unmarked) [Bambuterol hydrochloride]
Cholesterol-free [1, 16]: 1.362 | Complete [1, 17]: 1.472 | Difference [1, 18]: 0.11 | Cholesterol-free media + simvastatin (0.04 μM) [2, 24]: 1.184 | Complete Media [2, 25]: 1.226 | Difference [2, 26]: 0.04

C[C@]12CCC3=C4CCC(=O)C=C4CC[C@H]3[C@@H]1CC[C@@]2(O)CC#N [Dienogest]
Cholesterol-free [1, 8]: 1.387 | Complete ([1]; NCI-H292 cells, complete media): 1.069 | Difference [1, 23]: −0.32 | Cholesterol-free media + simvastatin (0.04 μM) [2, 28]: 0.9182 | Complete Media [2, 29]: 0.7086 | Difference [2, 10]: −0.21

CCCC(=O)Nc1ncnc2c1ncn2[C@@H]1O[C@@H]2COP(=O)(O)O[C@H]2[C@H]1OC(=O)CCC [Bucladesine (sodium)]
Difference [1, 7]: −0.23 | Cholesterol-free [1, 8]: 1.11 | Complete ([1]; NCI-H292 cells, complete media): 0.8768 | Cholesterol-free media + simvastatin (0.04 μM) [2, 28]: 1.094 | Complete Media [2, 29]: 0.8977 | Difference [2, 10]: −0.20

CC(C(=O)O)c1ccc2c(c1)CC(=O)c1ccccc1S2 (centres unmarked) [Zaltoprofen]
Difference [1, 22]: −0.13 | Cholesterol-free [1, 4]: 1.151 | Complete [1, 5]: 1.025 | Cholesterol-free media + simvastatin (0.04 μM) [2, 11]: 1.283 | Complete Media [2, 12]: 0.7256 | Difference [2, 10]: −0.56

C1N2CN3CN1CN(C2)C3.O=C(O)CNC(=O)c1ccccc1 [Methenamine (hippurate)]
Difference [1, 7]: 0.05 | Cholesterol-free [1, 16]: 0.09528 | Complete [1, 17]: 0.1431 | Cholesterol-free media + simvastatin (0.04 μM) [2, 19]: 0.3855 | Complete Media [2, 20]: 0.3286 | Difference [2, 21]: −0.06

N[C@@H](Cc1cc(I)c(Oc2ccc(O)c(I)c2)c(I)c1)C(=O)O [Liothyronine (sodium)]
Cholesterol-free [1, 8]: 1.224 | Complete ([1]; NCI-H292 cells, complete media): 0.9078 | Difference [1, 23]: −0.32 | Cholesterol-free media + simvastatin (0.04 μM) [2, 28]: 1.302 | Complete Media [2, 29]: 1.113 | Difference [2, 10]: −0.19

CC[C@H](Nc1ncnc2[nH]cnc12)c1nc2cccc(F)c2c(=O)n1-c1ccccc1 [Idelalisib]
Difference [1, 22]: −0.13 | Cholesterol-free [1, 4]: 1.096 | Complete [1, 5]: 0.9672 | Cholesterol-free media + simvastatin (0.04 μM) [2, 11]: 1.507 | Complete Media [2, 12]: 1.219 | Difference [2, 10]: −0.29

CCCN1CCCC[C@H]1C(=O)Nc1c(C)cccc1C [Ropivacaine (hydrochloride monohydrate)]
Cholesterol-free [1, 8]: 0.9717 | Complete ([1]; NCI-H292 cells, complete media): 0.6061 | Difference [1, 23]: −0.37 | Cholesterol-free media + simvastatin (0.04 μM) [2, 24]: 1.378 | Complete Media [2, 25]: 1.433 | Difference [2, 26]: 0.05

NC12CC3CC(CC(C3)C1)C2 [Amantadine (hydrochloride)]
Cholesterol-free [1, 16]: 0.9565 | Complete [1, 17]: 1.419 | Difference [1, 27]: 0.46 | Cholesterol-free media + simvastatin (0.04 μM) [2, 28]: 1.14 | Complete Media [2, 29]: 0.9614 | Difference [2, 30]: −0.18

CN1[C@@H]2CC[C@H]1C[C@@H](OC(=O)[C@H](CO)c1ccccc1)C2 [L-Hyoscyamine]
Difference [1, 3]: −0.26 | Cholesterol-free [1, 8]: 1.23 | Complete ([1]; NCI-H292 cells, complete media): 0.9714 | Cholesterol-free media + simvastatin (0.04 μM) [2, 28]: 1.192 | Complete Media [2, 29]: 1.027 | Difference [2, 30]: −0.16
